Measurements taken from patent US20070148184A1, “Survivin-derived peptides and use thereof” (priority 2003, published 2007).

Assays:
HLA-A2 = target: T1, HLA-A2 (Homo sapiens, UniProt P04439, D140Y/D185E/D98H/E176V/E277Q/G131W/G231S/I119V/I121R/I166T/I218V/L300P/L318F/N151K/N90K/P208A/P217A/Q86G/Q94H/R138H/R169H/T345S); experiment: Assembly assay for peptide binding to class I MHC, HLA-A2; conditions: Example 1, Table 1; read-out: C50 (peptide concentration for half maximal binding to HLA-A2)
T1 construct: stabilization of the class I molecules after loading of peptide to the peptide transporter deficient cell line T2; endogenous in cells; host or cells: T2 (TAP-deficient human hybrid cell line), metabolically labelled lysate
Procedure: This assembly assay is carried out as described previously (12,13), and it is based on stabilisation of the HLA molecule after loading of peptide to the peptide transporter deficient cell line T2. Subsequently, correctly folded stable HLA heavy chains are immunoprecipitated using conformation dependent antibodies and the peptide binding is quantitated.
Assembly assays for binding of the synthetic peptides to class I MHC molecules metabolically labeled with [35S]-methionine were carried out as described (12,13). The assembly assay is based on stabilization of the class I molecules after loading of peptide to the peptide transporter deficient cell line T2. Subsequently, correctly folded stable MHC heavy chains are immunoprecipitated using conformation-dependent antibodies. After IEF electrophoresis, gels were exposed to phosphoImager screens, and peptide binding was quantified using the Imagequant PhosphorImager program (Molecular Dynamics, Sunnyvale, Calif.).
The binding affinity of synthetic peptides (Invitrogen, Carlsbad, Calif., USA) to HLA-A1, -A2, A3, or -A11 molecules metabolically labeled with [^35S]-methionine was measured in the assembly assay, as described previously (12). The assay is based on peptide-mediated stabilization of empty HLA molecules released upon cell lysis, from the TAP-deficient cell lines. […] MHC heavy chain bands were quantified using the ImageGauge Phosphorimager program (FUJI photo film Co., Carrollton, Tex., USA). The intensity of the band is proportional to the amount of peptide-bound class I MHC complex recovered during the assay. Subsequently, the extent of stabilization of the HLA-molecule is directly related to the binding affinity of the added peptide. The peptide concentration used to analyze the recovery of the HLA-molecules was 40, 4, 0.4, 0.04 μM for HLA-A1 and HLA-A11, and 100, 10, 1, 0.1, 0.01 μM for HLA-A2 and HLA-A3. The C50 value was subsequently calculated for each peptide as the peptide concentration sufficient for half maximal stabilization.

[1] = system: stage 1V melanoma patients; experiment: Vaccination of melanoma patients with peptide pulsed dendritic cells; conditions: human, in vivo
Excerpt: All clinical procedures were in accordance with the Declaration of Helsinki and all patients provided informed consent prior to therapy. Stage 1V cutaneous or uveal melanoma patients were eligible when their disease was progressive despite at least two different chemo-, immuno, or chemoimmunotherapies. […] Important exclusion criteria were evidence of CNS metastases, active autoimmune or infectious diseases, pregnancy and lactation, as well as significant psychiatric abnormality. Peptide pulsed dendritic cells were generated as previously described (82). Briefly, PBMCs from leukapheresis were isolated on LymphoprepTM (Nycomed Pharma), frozen in aliquots and stored in liquid nitrogen. One week prior to vaccination, PBMCs were thawed, washed and cultured in medium containing gentamycin, glutamine and heat inactivated autologous plasma. On day 1 and 5, IL-4 and GM-CSF were added. To differentiate mature DCs, […] and prostaglandin E2 were added on day 6. […] Immunological responses were monitored by the ELISPOT assay, using PBMCs obtained every three months, to detect survivin96-104 specific IFN-γ release. […] The reaction was terminated upon the appearance of dark purple spots, which were quantitated using the AlphaImager System (Alpha Innotech, San Leandro, Calif., USA).

Which EC50 (HLA-A2) does the source give for `CSCC[C@H](NC(=O)[C@@H](N)CC(C)C)C(=O)N[C@@H](CC(C)C)C(=O)NCC(=O)N[C@@H](CCC(=O)O)C(=O)N[C@@H](Cc1ccccc1)C(=O)N[C@@H](CC(C)C)C(=O)N[C@@H](CCCCN)C(=O)N[C@@H](CC(C)C)C(=O)O` [Sur1M2] here?
The EC50 was 1000 nM.

What about the vaccination associated toxicity [1] of the same molecule?
Its vaccination associated toxicity is “vaccination associated toxicity was not observed”.
